We go through eight molecules from US8809498B2, “Pepstatin A derivatives” (priority 2008, dated 2014).

One may read the IC50 as the concentration needed to halve the response being measured.

Structures are written as SMILES. Non-standard residues stand in square brackets, D forms with d. Residues, ends and D or L forms follow the SMILES beside them. *: point of attachment. Phe(4-F) = N[C@@H](Cc1ccc(F)cc1)C(=O)O; Phe(4-Me) = Cc1ccc(C[C@H](N)C(=O)O)cc1; Sta = CC(C)C[C@H](N)[C@@H](O)CC(=O)O; Isovaleryl = CC(C)CC(=O)*; Nle = CCCC[C@H](N)C(=O)O

What all share (type): biochemical
The target in one assay is Sap1 of Candida albicans (Candida albicans, UniProt P0CY27). Put plainly: Inhibition of proteolytic activity of Sap1 (resorufin-marked casein, fluorescence). The note with it: for effectiveness against Sap1 compared with pepstatin A: versus pepstatin A. On the procedure: (§1) For this purpose, that inhibitor concentration was determined in vitro at which the proteolytic activity of the enzyme or its velocity of metabolizing a substrate, respectively, was reduced for 50%.
Chain of Sap1 of Candida albicans (P0CY27 51-391): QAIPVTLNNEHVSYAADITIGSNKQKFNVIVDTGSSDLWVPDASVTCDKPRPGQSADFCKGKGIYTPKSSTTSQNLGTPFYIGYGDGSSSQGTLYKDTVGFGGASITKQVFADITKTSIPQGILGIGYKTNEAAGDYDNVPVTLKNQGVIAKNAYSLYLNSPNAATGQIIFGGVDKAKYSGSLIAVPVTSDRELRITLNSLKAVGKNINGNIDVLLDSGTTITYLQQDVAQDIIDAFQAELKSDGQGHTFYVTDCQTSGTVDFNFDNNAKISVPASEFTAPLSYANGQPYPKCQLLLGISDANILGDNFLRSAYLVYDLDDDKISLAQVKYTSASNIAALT
(§2) The proteolytic activity of the tested Saps was determined at the pH optimum of those Saps. Resorufin-marked casein was used as substrate. Proteolysis of casein can be detected by an increase in fluorescence due to released resorufin (a fluorescence marker) by proteolysis.
(§3) Sap1, Sap3 and Sap6 of Candida albicans were independently dissolved in 2-(N-morpholino)ethanesulfonic acid (MES) having a concentration of 10 mmol/l and a pH of 6.5 resulting in enzyme solutions having a Sap concentration of 100 mmol/l. After one hour incubation at room temperature, 80 μl of a substrate solution comprising resorufin-marked casein in a sodium citrate buffer having a concentration of 500 mmol/l and a pH of 3.5 (in case of Sap3), 4.5 (in case of Sap1) and 5.0 (in case of Sap6) were added to 20 μl of enzyme solution. The resulting Sap concentration was 5 nmol/l. The resulting casein concentration was chosen such that the Saps could work in excess of substrate. Different Sap inhibitors were added, resulting in a final inhibitor concentration of 1 nmol/1, 2 nmol/1, 5 nmol/1, 10 nmol/l, nmol/l or 50 nmol/l in each case. One enzyme-substrate sample was left without addition of inhibitor. All experiments were performed in triplicate.
(§4) The mixture of enzyme and substrate or of enzyme, substrate and inhibitor was incubated at 37° C. under agitation at 300 rpm (rounds per minute) for 60 min in each case. Afterwards, 20 μl of a trichloroacetic acid solution (30%, w/v) were added. The mixture was placed on ice for 5 minutes and centrifuged afterwards for 3 min at 6000 rpm. The supernatant was removed.
(§5) To carry out fluorescence measurements, 100 μl of the supernatant were mixed with 100 μl Tris-HCl (trishydroxymethylaminomethane-HCl) having a concentration of 1 mol/l and a pH of 10.0. The fluorescence of this mixture was measured directly after adding Tris-HCl using an excitation wavelength of 530 nm and an emission wavelength of 590 nm on a CytoFluor 2350 apparatus (Millipore, Bedford, Mass., USA), wherein sensitivity was set to 2 and bandwidth was set to 7.
(§6) The average of three independent fluorescence measurements was calculated. The fluorescence of enzyme without inhibitor (i.e. inhibitor concentration of 0 nmol/l) was set to 100% enzyme activity. The activity of inhibited enzyme was calculated accordingly from the fluorescence of inhibited enzyme with respect to fluorescence of enzyme without inhibitor. Finally, the enzyme activity was plotted against the inhibitor concentration and the IC50 value was determined.

For another assay, the target named is Sap3 of Candida albicans (Candida albicans, UniProt P0CY29). As to the kind of experiment: Inhibition of proteolytic activity of Sap3 (resorufin-marked casein, fluorescence). On the procedure:
as §1, §2, §3, §4, §5, §6

For the next assay, the target named is Sap5 (Candida albicans, UniProt P43094). As to the kind of experiment: Inhibition of proteolytic activity of Sap5. The protocol:
as §1, §2, §4, §5, §6

A further assay concerns the target Sap6 of Candida albicans (Candida albicans, UniProt Q5AC08). Put plainly: Inhibition of proteolytic activity of Sap6 (resorufin-marked casein, fluorescence). On the procedure:
as §1, §2, §3, §4, §5, §6

Chain of Sap3 of Candida albicans (P0CY29 59-398): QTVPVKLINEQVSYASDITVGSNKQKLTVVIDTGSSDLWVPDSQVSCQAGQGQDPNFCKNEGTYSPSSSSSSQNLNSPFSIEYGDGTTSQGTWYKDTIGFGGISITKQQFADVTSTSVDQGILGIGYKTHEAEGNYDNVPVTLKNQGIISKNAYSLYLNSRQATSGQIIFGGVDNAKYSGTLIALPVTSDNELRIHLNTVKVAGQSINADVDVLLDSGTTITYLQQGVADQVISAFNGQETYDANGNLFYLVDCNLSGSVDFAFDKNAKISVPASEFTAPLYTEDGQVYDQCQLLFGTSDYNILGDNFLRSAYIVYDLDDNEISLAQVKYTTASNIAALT
Chain of Sap6 of Candida albicans (Q5AC08 77-418): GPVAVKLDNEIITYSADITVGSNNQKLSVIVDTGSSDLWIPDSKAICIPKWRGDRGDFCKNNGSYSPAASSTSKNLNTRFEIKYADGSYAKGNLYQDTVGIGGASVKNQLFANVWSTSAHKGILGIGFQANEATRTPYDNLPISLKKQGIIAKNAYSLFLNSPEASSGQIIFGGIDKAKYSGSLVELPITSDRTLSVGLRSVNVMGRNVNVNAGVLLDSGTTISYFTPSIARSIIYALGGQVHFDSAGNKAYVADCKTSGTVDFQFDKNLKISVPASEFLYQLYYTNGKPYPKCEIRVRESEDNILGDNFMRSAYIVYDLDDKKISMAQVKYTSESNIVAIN
Chain of Sap5 (P43094 77-418): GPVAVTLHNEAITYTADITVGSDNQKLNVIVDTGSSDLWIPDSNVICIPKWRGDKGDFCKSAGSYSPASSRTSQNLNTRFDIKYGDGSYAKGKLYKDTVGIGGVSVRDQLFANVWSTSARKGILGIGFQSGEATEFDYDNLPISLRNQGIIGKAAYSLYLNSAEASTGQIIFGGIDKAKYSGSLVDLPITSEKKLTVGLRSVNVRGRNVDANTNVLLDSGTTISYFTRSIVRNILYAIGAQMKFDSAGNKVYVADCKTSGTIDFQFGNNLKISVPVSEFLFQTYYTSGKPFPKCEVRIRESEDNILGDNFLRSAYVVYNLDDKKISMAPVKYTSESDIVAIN

`CCCC[C@H](NC(=O)[C@H](Cc1ccccc1)NC(=O)CC(C)C)C(=O)N[C@@H](CC(C)C)[C@@H](O)CC(=O)N[C@@H](CCCCN)C(=O)N[C@@H](CC(C)C)[C@@H](O)CC(=O)O` [Compound K, (N-Iva-Phe)-Nle-Sta-Lys-Sta] (Isovaleryl-F[Nle][Sta]K[Sta]-OH): the IC50 at Sap1 of Candida albicans is less than 5 nM; against Sap3 of Candida albicans it was 20 nM; against Sap5, roughly 5 nM; against Sap6 of Candida albicans it was roughly 50 nM. Moreover, the “effectiveness against Sap1 compared with pepstatin A” value on Sap1 of Candida albicans is reported as “more effective against Sap1 than pepstatin A itself”. For the same molecule, at Sap5 (versus pepstatin A), the “effect on Sap 5” value is recorded as “increased effect on Sap 5”.
In the case of `CC(C)CC(=O)N[C@@H](CC(C)C)C(=O)N[C@H](C(=O)N[C@@H](CC(C)C)[C@@H](O)CC(=O)N[C@@H](C)C(=O)N[C@@H](CC(C)C)[C@@H](O)CC(=O)O)C(C)C` [P3(Leu)-pepstatin, (N-Iva-Leu)-Val-Sta-Ala-Sta, reference compound] (Isovaleryl-LV[Sta]A[Sta]-OH), the results for the IC50 at Sap1 of Candida albicans, against Sap3 of Candida albicans and against Sap6 of Candida albicans were greater than 500 nM, less than 5 nM and greater than 500 nM, respectively.
As for `Cc1ccc(C[C@H](NC(=O)CC(C)C)C(=O)N[C@H](C(=O)N[C@@H](CC(C)C)[C@@H](O)CC(=O)N[C@@H](C)C(=O)N[C@@H](CC(C)C)[C@@H](O)CC(=O)O)C(C)C)cc1` [P3(MePhe)-pepstatin, (N-Iva-pMePhe)-Val-Sta-Ala-Sta] (Isovaleryl-[Phe(4-Me)]V[Sta]A[Sta]-OH), the IC50 was roughly 10 nM against Sap1 of Candida albicans, roughly 5 nM on Sap3 of Candida albicans and roughly 20 nM at Sap6 of Candida albicans.
Consider `COc1ccc(C[C@H](NC(=O)CC(C)C)C(=O)N[C@H](C(=O)N[C@@H](CC(C)C)[C@@H](O)CC(=O)N[C@@H](C)C(=O)N[C@@H](CC(C)C)[C@@H](O)CC(=O)O)C(C)C)cc1` [P3(O—MeTyr)-pepstatin, (N-Iva-OMeTyr)-Val-Sta-Ala-Sta] (Isovaleryl-Y(Me)V[Sta]A[Sta]-OH), for which the IC50 against Sap1 of Candida albicans was greater than 500 nM; at Sap3 of Candida albicans, roughly 5 nM; against Sap6 of Candida albicans, roughly 10 nM.
Turning to `CC(C)CC(=O)N[C@@H](Cc1ccccc1)C(=O)N[C@H](C(=O)N[C@@H](CC(C)C)[C@@H](O)CC(=O)N[C@@H](C)C(=O)N[C@@H](CC(C)C)[C@@H](O)CC(=O)O)C(C)C` [P3(Phe)-pepstatin, (N-Iva-Phe)-Val-Sta-Ala-Sta] (Isovaleryl-FV[Sta]A[Sta]-OH), the IC50 against Sap1 of Candida albicans was roughly 5 nM; at Sap3 of Candida albicans, less than 5 nM; against Sap6 of Candida albicans it was roughly 10 nM. Besides, the “effectiveness against Sap1 compared with pepstatin A” value on Sap1 of Candida albicans is recorded as “more effective against Sap1 than pepstatin A itself”.
In the case of `CC(C)CC(=O)N[C@@H](Cc1ccc(O)cc1)C(=O)N[C@H](C(=O)N[C@@H](CC(C)C)[C@@H](O)CC(=O)N[C@@H](C)C(=O)N[C@@H](CC(C)C)[C@@H](O)CC(=O)O)C(C)C` [P3(Tyr)-pepstatin, (N-Iva-Tyr)-Val-Sta-Ala-Sta] (Isovaleryl-YV[Sta]A[Sta]-OH), the IC50 on Sap1 of Candida albicans, at Sap3 of Candida albicans and on Sap6 of Candida albicans was less than 5 nM in each case. Moreover, the “effectiveness against Sap1 compared with pepstatin A” value on Sap1 of Candida albicans is recorded as “more effective against Sap1 than pepstatin A itself”. For the same molecule, the “effect on Sap 6” value at Sap6 of Candida albicans (versus pepstatin A) is “increased effects on Sap 6”.
For `CC(C)CC(=O)N[C@@H](Cc1ccc(F)cc1)C(=O)N[C@H](C(=O)N[C@@H](CC(C)C)[C@@H](O)CC(=O)N[C@@H](C)C(=O)N[C@@H](CC(C)C)[C@@H](O)CC(=O)O)C(C)C` [P3(p-FPhe)-pepstatin, (N-Iva-pFPhe)-Val-Sta-Ala-Sta] (Isovaleryl-[Phe(4-F)]V[Sta]A[Sta]-OH), the values for the IC50 against Sap1 of Candida albicans, at Sap3 of Candida albicans and at Sap6 of Candida albicans were less than 5 nM, less than 5 nM and roughly 10 nM, respectively. For the same molecule, on Sap1 of Candida albicans, the “effectiveness against Sap1 compared with pepstatin A” value was “more effective against Sap1 than pepstatin A itself”.
Consider `CC(C)(C)NC(=O)[C@@H]1C[C@@H]2CCCC[C@@H]2CN1C[C@@H](O)[C@H](Cc1ccccc1)NC(=O)[C@H](CC(N)=O)NC(=O)c1ccc2ccccc2n1` [Saquinavir, reference compound], for which the IC50 against Sap1 of Candida albicans is roughly 50000 nM; against Sap3 of Candida albicans, roughly 200000 nM; at Sap6 of Candida albicans, greater than 312000 nM.
